In patent US8802597B2, “Herbicidal pyrimidines” (E I du Pont de Nemours and Company, priority 2003, dated 2014):
Where two headings read alike, the source gives them in different places.

Experiments:
Assay type in all cases: in vivo
[1] = test system: eastern black nightshade (Solanum ptycanthum); assay: Test C pre/postemergence; details: Preemergence
Summary of the method: (§1)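 Applications: preemergence onto seeded soil and postemergence onto 1- to 4-leaf seedlings, compound carried in non-phytotoxic solvent plus surfactant. Kept in greenhouse 12 to 14 days. Scored visually relative to untreated controls, 0 (no effect) to 100 (complete control).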

[2] = test system: morningglory (Ipomoea coccinea); assay: Test C pre/postemergence; details: for pest or weed control at 31 g/ha: 31 g ai/ha
Summary of the method: as §1

[3] = test system: woolly cupgrass (Eriochloa villosa); assay: Test C pre/postemergence; details: for pest or weed control at 31 g/ha: 31 g ai/ha; for Cupgrass, Woolly plant response rating: scale 0 to 100 (0 no effect, 100 complete control)
Summary of the method: as §1

[4] = test system: chickweed (Stellaria media); assay: Test C postemergence; details: for Chickweed plant response rating: scale 0 to 100 (0 no effect, 100 complete control)
Summary of the method: as §1

[5] = Postemergence, 250 g ai/ha, scale 0 to 100
[6] = Postemergence, 500 g ai/ha, scale 0 to 100
[7] = Preemergence, 62 g ai/ha, scale 0 to 100, 0 no effect, 100 complete control
[8] = Preemergence, 125 g ai/ha, scale 0 to 100
[9] = Preemergence, 250 g ai/ha, scale 0 to 100
[10] = Preemergence, 500 g ai/ha, scale 0 to 100

Nc1nc(C2CC2)nc(C(=O)OCc2ccccc2)c1Cl [Compound 78, phenylmethyl 6-amino-5-chloro-2-cyclopropyl-4-pyrimidinecarboxylate]
pest or weed control at 16 g/ha ([1]; Solanum, pre-emergence, 16 g ai/ha, scale 0 to 100, 0 no effect, 100 complete control, read-out: Plant response rating, Nightshade): 0%
pest or weed control at 31 g/ha ([1]; Solanum, pre-emergence, 31 g ai/ha, scale 0 to 100, 0 no effect, 100 complete control, read-out: Plant response rating, Nightshade): 30%
pest or weed control at 62 g/ha ([1]; Solanum, pre-emergence, 62 g ai/ha, scale 0 to 100, 0 no effect, 100 complete control, read-out: Plant response rating, Nightshade): 60%
pest or weed control at 31 g/ha ([2]; Ipomoea, post-emergence, Postemergence, read-out: Plant response rating (scale of 0 to 100), Morningglory): 90%
pest or weed control at 62 g/ha ([2]; Ipomoea, post-emergence, Postemergence, 62 g ai/ha, read-out: Plant response rating (scale of 0 to 100), Morningglory): 90%
pest or weed control at 125 g/ha ([2]; Ipomoea, post-emergence, Postemergence, 125 g ai/ha, scale 0 to 100 (0 no effect, 100 complete control), read-out: Morningglory plant response rating): 100%
pest or weed control at 250 g/ha ([2]; Ipomoea, post-emergence, Postemergence, 250 g ai/ha, scale 0 to 100, read-out: Plant response rating, Morningglory): 100%
pest or weed control at 16 g/ha ([2]; Ipomoea, pre-emergence, Preemergence, 16 g ai/ha, scale 0 to 100, 0 no effect, 100 complete control, read-out: Plant response rating, Morningglory): 0%
pest or weed control at 31 g/ha ([2]; Ipomoea, pre-emergence, Preemergence, scale 0 to 100, 0 no effect, 100 complete control, read-out: Plant response rating, Morningglory): 70%
pest or weed control at 62 g/ha ([2]; Ipomoea, pre-emergence, Preemergence, 62 g ai/ha, scale 0 to 100, 0 no effect, 100 complete control, read-out: Plant response rating, Morningglory): 85%
pest or weed control at 125 g/ha ([2]; Ipomoea, pre-emergence, Preemergence, 125 g ai/ha, scale 0 to 100, read-out: Plant response rating, Morningglory): 100%
pest or weed control at 31 g/ha ([3]; Eriochloa villosa, post-emergence, Postemergence, read-out: Plant response rating (scale of 0 to 100), Cupgrass, Woolly): 50%
pest or weed control at 62 g/ha ([3]; Eriochloa villosa, post-emergence, Postemergence, 62 g ai/ha, read-out: Plant response rating (scale of 0 to 100), Cupgrass, Woolly): 55%
pest or weed control at 250 g/ha ([3]; Eriochloa villosa, post-emergence, Postemergence, 250 g ai/ha, scale 0 to 100, read-out: Plant response rating, Cupgrass, Woolly): 90%
pest or weed control at 16 g/ha ([3]; Eriochloa villosa, pre-emergence, Preemergence, 16 g ai/ha, scale 0 to 100, 0 no effect, 100 complete control, read-out: Plant response rating, Cupgrass, Woolly): 0%
pest or weed control at 31 g/ha ([3]; Eriochloa villosa, pre-emergence, Preemergence, scale 0 to 100, 0 no effect, 100 complete control, read-out: Plant response rating, Cupgrass, Woolly): 0%
pest or weed control at 62 g/ha ([3]; Eriochloa villosa, pre-emergence, Preemergence, 62 g ai/ha, scale 0 to 100, 0 no effect, 100 complete control, read-out: Plant response rating, Cupgrass, Woolly): 0%
pest or weed control at 125 g/ha ([3]; Eriochloa villosa, pre-emergence, Preemergence, 125 g ai/ha, scale 0 to 100, read-out: Plant response rating, Cupgrass, Woolly): 10%
pest or weed control at 31 g/ha ([4]; Stellaria media, post-emergence, 31 g ai/ha, read-out: Plant response rating (scale of 0 to 100), Chickweed): 0%
pest or weed control at 62 g/ha ([4]; Stellaria media, post-emergence, 62 g ai/ha, read-out: Plant response rating (scale of 0 to 100), Chickweed): 0%
pest or weed control at 250 g/ha ([4]; Stellaria media, post-emergence, 250 g ai/ha, scale 0 to 100, read-out: Plant response rating, Chickweed): 70%

CN(C)N=Cc1nc(C2CC2)nc(N)c1Br [Compound 50]
Plant response rating, Nightshade ([1]; 62 g ai/ha, scale 0 to 100, 0 no effect, 100 complete control): 95
Plant response rating, Nightshade ([1]; 125 g ai/ha, scale 0 to 100): 100
Plant response rating, Nightshade ([1]; 250 g ai/ha, scale 0 to 100): 100
Plant response rating, Nightshade ([1]; 500 g ai/ha, scale 0 to 100): 100
Morningglory plant response rating ([2]; Postemergence, 62 g ai/ha, scale 0 to 100 (0 no effect, 100 complete control)): 65
Morningglory plant response rating ([2]; Postemergence, 125 g ai/ha, scale 0 to 100 (0 no effect, 100 complete control)): 80
Plant response rating, Morningglory [2, 5]: 85
Plant response rating, Morningglory [2, 6]: 95
Plant response rating, Morningglory [2, 7]: 80
Plant response rating, Morningglory [2, 8]: 95
Plant response rating, Morningglory [2, 9]: 95
Plant response rating, Morningglory [2, 10]: 100
Cupgrass, Woolly plant response rating ([3]; Postemergence, 62 g ai/ha): 0
Cupgrass, Woolly plant response rating ([3]; Postemergence, 125 g ai/ha): 0
Plant response rating, Cupgrass, Woolly [3, 5]: 15
Plant response rating, Cupgrass, Woolly [3, 6]: 30
Plant response rating, Cupgrass, Woolly [3, 7]: 0
Plant response rating, Cupgrass, Woolly [3, 8]: 0
Plant response rating, Cupgrass, Woolly [3, 9]: 0
Plant response rating, Cupgrass, Woolly [3, 10]: 40
Chickweed plant response rating ([4]; 62 g ai/ha): 0
Chickweed plant response rating ([4]; 125 g ai/ha): 0
Plant response rating, Chickweed ([4]; 500 g ai/ha, scale 0 to 100): 20
